We go through five compounds from patent publication US20250368649A1, “TETRAHYDROPYRIDOPYRIMIDINE PAN-KRAS INHIBITORS” (Mirati Therapeutics, Inc., priority 2022, published 2025).

Each structure is given as a SMILES string. Bounds are passed on as bounds.

One assay deals with KRas WT (Homo sapiens, UniProt P01116). Put plainly: KRas binding assay (TR-FRET displacement), KRas WT. The note with it: single point, 10 nM compound.
In a further assay the target is KRas G12A (Homo sapiens, UniProt P01116, G12A). The class given is binding. The settings on record: single point, 10 nM compound, read-out: Binding to KRas (% inhibition at 10 nM) G12A.
KRas G12A, sequence (P01116 1-169 isoform P01116-2 G12A): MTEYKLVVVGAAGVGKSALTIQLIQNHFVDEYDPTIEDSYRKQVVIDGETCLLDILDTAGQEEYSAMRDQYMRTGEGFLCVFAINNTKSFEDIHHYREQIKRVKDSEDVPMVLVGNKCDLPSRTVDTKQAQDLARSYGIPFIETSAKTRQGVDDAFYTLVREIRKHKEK
The target in a further assay is KRas G12C (Homo sapiens, UniProt P01116, G12C). It is filed as binding. The settings on record: single point, 10 nM compound, read-out: Binding to KRas (% inhibition at 10 nM) G12C.
KRas G12C, sequence (P01116 1-169 isoform P01116-2 G12C): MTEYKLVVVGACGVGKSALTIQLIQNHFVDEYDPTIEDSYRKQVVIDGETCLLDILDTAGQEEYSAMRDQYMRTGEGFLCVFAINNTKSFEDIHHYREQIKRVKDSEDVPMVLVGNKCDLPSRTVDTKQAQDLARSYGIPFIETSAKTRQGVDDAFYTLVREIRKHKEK
The target in the next assay is KRas G12S (Homo sapiens, UniProt P01116, G12S). It is filed as binding. The settings on record: single point, 10 nM compound, read-out: Binding to KRas (% inhibition at 10 nM) G12S.
KRas G12S, sequence (P01116 1-169 isoform P01116-2 G12S): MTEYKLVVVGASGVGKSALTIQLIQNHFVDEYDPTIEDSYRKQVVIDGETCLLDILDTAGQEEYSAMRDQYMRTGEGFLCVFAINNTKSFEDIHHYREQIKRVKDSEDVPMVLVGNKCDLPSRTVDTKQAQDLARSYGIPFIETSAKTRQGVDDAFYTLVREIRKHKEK
A further assay concerns the target KRas G13D (Homo sapiens, UniProt P01116, G13D). The class given is binding. The settings on record: single point, 10 nM compound, read-out: Binding to KRas (% inhibition at 10 nM) G13D.
The target of a further assay is KRas Q61H (Homo sapiens, UniProt P01116, Q61H). The assay can be described thus: KRas binding assay (TR-FRET displacement), KRas Q61H. The note with it: single point, 10 nM compound.
KRas Q61H, sequence (P01116 1-169 isoform P01116-2 Q61H): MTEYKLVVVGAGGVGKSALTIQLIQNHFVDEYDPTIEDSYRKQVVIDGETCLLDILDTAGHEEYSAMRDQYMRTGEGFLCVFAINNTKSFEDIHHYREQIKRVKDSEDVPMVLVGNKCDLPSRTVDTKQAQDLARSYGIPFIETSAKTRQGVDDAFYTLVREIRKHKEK
The next assay relates to MKN1 cells. Put plainly: Inhibition of KRas-mediated phosphorylation of ERK (Cisbio HTRF pERK), MKN1 cells. It is filed as cell-based. The note with it: Homo sapiens, MKN-1, 3 hour compound incubation, Cisbio pERK HTRF. The procedure, abridged: (§1)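 Growth medium is RPMI with 10% FBS, and each well receives 6,000 cells on the first day of the protocol.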
In general terms: TR-FRET usually uses a lanthanide donor and a delayed reading to cut background.

A further assay deals with PSN1 cells. Put plainly: Inhibition of KRas-mediated phosphorylation of ERK (Cisbio HTRF pERK), PSN1 cells. The class given is cell-based. The note with it: Homo sapiens, PSN1, 3 h, 3 hour compound incubation, Cisbio pERK HTRF. The procedure, abridged:
as §1

In another assay the test system is ASPC1 cells. The assay can be described thus: Inhibition of KRas-mediated phosphorylation of ERK (Cisbio HTRF pERK), ASPC1 cells. The note with it: Homo sapiens, AsPC-1 cells; for IC50: ASPC1, 3 h, 3 hr compound incubation, Cisbio pERK HTRF. The class given is cell-based.
A further assay relates to H727 cells. Put plainly: Inhibition of KRas-mediated phosphorylation of ERK (Cisbio HTRF pERK), H727 cells. The note with it: Homo sapiens; for IC50: NCI-H727, 3 h, 3 hr compound incubation, Cisbio pERK HTRF. The class given is cell-based.
The test system of a further assay is A549 cells. The assay can be described thus: Inhibition of KRas-mediated phosphorylation of ERK (Cisbio HTRF pERK), A549 cells. The note with it: Homo sapiens; for IC50: A549, 3 h, 3 hr compound incubation, Cisbio pERK HTRF; for inhibition at 0.1 µM: single point at 100 nM, 3 hrs compound incubation. It is filed as cell-based.
A further assay has as its system H460 cells. Put plainly: Inhibition of KRas-mediated phosphorylation of ERK (Cisbio HTRF pERK), H460 cells. The settings on record: Homo sapiens, NCI-H460, 3 h, 3 hr compound incubation, Cisbio pERK HTRF. The class given is cell-based.
In a further assay the test system is HCT116 cells. The assay can be described thus: Inhibition of KRas-mediated phosphorylation of ERK (Cisbio HTRF pERK), HCT116 cells. The class given is cell-based. The note with it: Homo sapiens, HCT-116, 3 h, 3 hr compound incubation, Cisbio pERK HTRF.
For the next assay, the system named is H358 cells. The assay can be described thus: Inhibition of KRas-mediated phosphorylation of ERK (Cisbio HTRF pERK), H358 cells. The class given is cell-based. The note with it: Homo sapiens; for IC50: NCI-H358, 3 h, 3 hr compound incubation, Cisbio pERK HTRF; for inhibition at 0.1 µM: NCI-H358, single point at 100 nM, 3 hrs compound incubation.
A further assay addresses KRas G12D (Homo sapiens, UniProt P01116, G12D). The assay can be described thus: biochemical. The settings on record: Binding to KRas (IC50 nM) G12D, TR-FRET displacement, KRas G12D.
The target in a further assay is KRas G12R (Homo sapiens, UniProt P01116, G12R). The assay can be described thus: biochemical. The settings on record: Binding to KRas (IC50 nM) G12R, TR-FRET displacement, KRas G12R.
KRas G12R, sequence (P01116 1-169 isoform P01116-2 G12R): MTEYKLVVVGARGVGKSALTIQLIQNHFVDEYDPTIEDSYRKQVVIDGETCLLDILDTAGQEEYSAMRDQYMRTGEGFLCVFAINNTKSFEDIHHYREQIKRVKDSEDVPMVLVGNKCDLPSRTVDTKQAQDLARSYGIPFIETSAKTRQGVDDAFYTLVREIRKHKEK
The target in a further assay is KRas G12V (Homo sapiens, UniProt P01116, G12V). The assay can be described thus: biochemical. The note with it: Binding to KRas (IC50 nM) G12V, TR-FRET displacement, KRas G12V.
KRas G12V, sequence (P01116 1-169 isoform P01116-2 G12V): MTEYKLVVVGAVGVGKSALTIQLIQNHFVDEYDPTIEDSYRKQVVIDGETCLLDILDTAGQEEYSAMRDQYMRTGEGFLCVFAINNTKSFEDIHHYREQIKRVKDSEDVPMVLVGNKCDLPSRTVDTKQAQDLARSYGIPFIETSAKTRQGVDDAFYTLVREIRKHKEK

KRas G12D, sequence (P01116 1-169 isoform P01116-2 G12D): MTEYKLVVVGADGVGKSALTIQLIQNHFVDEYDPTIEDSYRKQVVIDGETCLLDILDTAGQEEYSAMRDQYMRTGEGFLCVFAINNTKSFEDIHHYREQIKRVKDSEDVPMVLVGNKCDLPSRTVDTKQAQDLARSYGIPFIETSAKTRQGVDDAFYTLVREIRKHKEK
KRas G13D, sequence (P01116 1-169 isoform P01116-2 G13D): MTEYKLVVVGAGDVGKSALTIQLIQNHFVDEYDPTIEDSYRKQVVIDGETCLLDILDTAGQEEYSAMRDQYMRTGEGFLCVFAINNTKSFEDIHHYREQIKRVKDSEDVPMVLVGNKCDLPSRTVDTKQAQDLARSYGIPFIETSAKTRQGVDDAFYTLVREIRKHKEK
KRas WT, sequence (P01116 1-169 isoform P01116-2): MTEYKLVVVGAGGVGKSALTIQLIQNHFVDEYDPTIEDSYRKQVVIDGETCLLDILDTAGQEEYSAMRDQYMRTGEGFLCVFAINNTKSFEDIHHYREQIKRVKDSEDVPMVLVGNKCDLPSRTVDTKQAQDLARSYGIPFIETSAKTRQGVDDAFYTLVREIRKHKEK

Take `CCc1c(F)ccc2cc(O)cc(N3CCc4c(nc(OC[C@@]56CCCN5C[C@H](F)C6)nc4N4CCCn5nc(C(=O)N(C)C)c(Br)c5C4)C3)c12` [Example 387, 3-bromo-5-(7-(8-ethyl-7-fluoro-3-hydroxynaphthalen-1-yl)-2-(((2R,7aS)-2-fluorohexahydro-1H-pyrrolizin-7a-yl)methoxy)-5,6,7,8-tetrahydropyrido[3,4-d]pyrimidin-4-yl)-N,N-dimethyl-5,6,7,8-tetrahydro-4H-pyrazolo[1,5-a][1,4]diazepine-2-carboxamide]: the inhibition (commonly the drop in the measured response relative to a control, in per cent) at 0.01 µM at KRas WT was determined as 99%; at KRas G12A, 99%; at KRas G12C, 100%; at KRas G12S, 100%; at KRas G13D, 99%; on KRas Q61H it was 99%. For the same compound, the IC50 (in general, the concentration that inhibits the measured activity by half) with MKN1 cells amounted to 3 nM; with PSN1 cells, 1800 nM; with ASPC1 cells, 1 nM; in the assay with H727 cells, 2 nM; with A549 cells it was 1 nM; in the assay on H460 cells it was 7 nM. Moreover, the IC50 in the assay with HCT116 cells is 14 nM; with H358 cells it was 1 nM; on KRas G12D, below 2 nM; at KRas G12R, below 2 nM; at KRas G12V it was below 2 nM. Further, the inhibition at 0.1 µM is 99% in the assay on ASPC1 cells (ASPC1, single point at 100 nM, 3 hrs compound incubation); 85% with H727 cells (NCI-H727, single point at 100 nM, 3 hrs compound incubation); 89% with A549 cells; 100% in the assay with H358 cells.
In the case of `CCc1c(F)ccc2cc(O)cc(N3CCc4c(nc(OC[C@@]56CCCN5C[C@H](F)C6)nc4N4CCCn5nc(C(=O)NC)c(Cl)c5C4)C3)c12` [Example 388, 3-chloro-5-(7-(8-ethyl-7-fluoro-3-hydroxynaphthalen-1-yl)-2-(((2R,7aS)-2-fluorohexahydro-1H-pyrrolizin-7a-yl)methoxy)-5,6,7,8-tetrahydropyrido[3,4-d]pyrimidin-4-yl)-N-methyl-5,6,7,8-tetrahydro-4H-pyrazolo[1,5-a][1,4]diazepine-2-carboxamide], the inhibition at 0.01 µM came out at 98% on KRas WT; 94% at KRas G12A; 100% on KRas G12C; 99% at KRas G12S; 98% at KRas G13D; 99% on KRas Q61H. For the same compound, the IC50 in the assay on MKN1 cells stood at 8.1 nM; with PSN1 cells, 2350 nM; in the assay with ASPC1 cells it was 1 nM; in the assay on H727 cells, 2 nM; with A549 cells it was 9 nM; with H460 cells it was 20 nM. In addition, the IC50 was 42 nM in the assay on HCT116 cells; 1 nM in the assay on H358 cells; below 2 nM on KRas G12D; below 2 nM at KRas G12R; below 2 nM at KRas G12V. Also, the inhibition at 0.1 µM was 79% in the assay on A549 cells and 97% in the assay with H358 cells.
`CCc1c(F)ccc2cc(O)cc(N3CCc4c(nc(OC[C@@]56CCCN5C[C@H](F)C6)nc4N4CCCn5nc(C(=O)N(CC)CC)cc5C4)C3)c12` [Example 390, N,N-diethyl-5-(7-(8-ethyl-7-fluoro-3-hydroxynaphthalen-1-yl)-2-(((2R,7aS)-2-fluorohexahydro-1H-pyrrolizin-7a-yl)methoxy)-5,6,7,8-tetrahydropyrido[3,4-d]pyrimidin-4-yl)-5,6,7,8-tetrahydro-4H-pyrazolo[1,5-a][1,4]diazepine-2-carboxamide]: the inhibition at 0.01 µM came to 95% at KRas WT; 95% at KRas G12A; 99% at KRas G12C; 98% on KRas G12S; 95% at KRas G13D; 97% at KRas Q61H. Further, the IC50 with MKN1 cells was 9.6 nM; with PSN1 cells, 3850 nM; with ASPC1 cells it was 1 nM; with H727 cells it was 3 nM; in the assay with A549 cells, 5 nM; with H460 cells, 15 nM. For the same compound, the IC50 with HCT116 cells was 42 nM; with H358 cells, 1 nM; on KRas G12D it was below 2 nM; at KRas G12R, below 2 nM; at KRas G12V, below 2 nM. For the same compound, the inhibition at 0.1 µM in the assay with A549 cells was 79%; in the assay on H358 cells, 98%.
With `CCc1c(F)ccc2cc(O)cc(N3CCc4c(nc(OC[C@@]56CCCN5C[C@H](F)C6)nc4N4CCCn5nnc(Cl)c5C4)C3)c12` [Example 391, 4-(4-(3-chloro-7,8-dihydro-4H-[1,2,3]triazolo[1,5-a][1,4]diazepin-5(6H)-yl)-2-(((2R,7aS)-2-fluorohexahydro-1H-pyrrolizin-7a-yl)methoxy)-5,6-dihydropyrido[3,4-d]pyrimidin-7(8H)-yl)-5-ethyl-6-fluoronaphthalen-2-ol], the inhibition at 0.01 µM is 81% at KRas WT; 81% at KRas G12A; 93% at KRas G12C; 94% on KRas G12S; 86% at KRas G13D; 85% at KRas Q61H. Also, the IC50 in the assay with MKN1 cells is 57.6 nM; in the assay on PSN1 cells, above 10000 nM; in the assay on ASPC1 cells, 4 nM; in the assay with H727 cells, 26 nM; with H460 cells, 43 nM; with HCT116 cells it was 128 nM. Besides, the IC50 on KRas G12D is below 2 nM; at KRas G12R it was 3 nM; on KRas G12V, below 2 nM. Also, the inhibition at 0.1 µM came to 69% with A549 cells and 77% in the assay with H358 cells.
For the compound `CCc1c(F)ccc2cc(O)cc(N3CCc4c(nc(OC[C@@]56CCCN5C[C@H](F)C6)nc4N4CCCn5nc6c(c5C4)CCCN6)C3)c12` [Example 392, 5-ethyl-6-fluoro-4-(2-(((2R,7aS)-2-fluorohexahydro-1H-pyrrolizin-7a-yl)methoxy)-4-(3,4,8,9-tetrahydro-1H-pyrido[2′,3′:3,4]pyrazolo[1,5-a][1,4]diazepin-6(2H,5H,7H)-yl)-5,6-dihydropyrido[3,4-d]pyrimidin-7(8H)-yl)naphthalen-2-ol], the inhibition at 0.01 µM at KRas WT is 55%; on KRas G12A, 56%; on KRas G12C, 78%; on KRas G12S it was 71%; on KRas G13D, 50%; at KRas Q61H, 54%. Further, the IC50 in the assay on MKN1 cells was 111 nM; in the assay on PSN1 cells, above 10000 nM; in the assay on ASPC1 cells, 72 nM; in the assay on H727 cells, 136 nM; in the assay on H460 cells it was 285 nM; in the assay with HCT116 cells, 813 nM. The IC50 at KRas G12D was 3 nM; at KRas G12R, below 2 nM; on KRas G12V, 2 nM. Moreover, the inhibition at 0.1 µM stood at 38% in the assay with A549 cells and 47% with H358 cells.
